Read-outs that look alike come from different tables or passages of the source.
Tests used:
[1] = system: human colorectal adenocarcinoma SW480 cells; assay: Growth inhibition test (MTS) on SW480 cells; assay type: cell-based; details: read-out: SW480 ED50
Method: (§1) Two thousand cells of human colorectal adenocarcinoma SW480 were inoculated into each well of a 96-well microplate (manufactured by Corning Corp.), and using DMEM/Ham's F121:1 medium (culture medium) containing 5% fetal calf serum (FCS). Next day, a dimethyl sulfoxide (DMSO) solution of each test compound prepared in a concentration of 10 mmol/L was further diluted with culture medium to the desired concentrations (0.1, 0.5, 1, 2.5, 5 and 10 micromol/L), and the diluted solution was added to each well. The individual wells were further cultured in 5% carbon dioxide at 37° C. for 72 hours. After completion of the culture, 10 μl MTS (3-(4,5-Dimethyl-2-thiazolyl)-5-(carboxymethoxyphenyl)-2-(4-sulfophenyl)-2H-tetrazolium, inner salt assay (CellTiter96® AQueous One Solution Cell Proliferation Assay, Promega) was added to each well, and culturing was performed in 5% carbon dioxide at 37° C. for 2 hours. Using a microplate spectrophotometer (Synergy 2 multi-mode microplate reader (BioTek)), the absorbance of each well was measured at 490 nm. The value for cells not incorporated with a test compound was designated as 100%. By comparing these values with the absorbance difference obtained at the well in which each test compound was added, the cell viability (% viability) after treatment with the test compound was calculated.

[2] = system: human hepatoma HepG2 cells; assay: Growth inhibition test (MTS) on HepG2 cells; assay type: cell-based; details: 72 hours, read-out: HepG2 ED50
Method: as §1, with “human hepatoma HepG2” for “human colorectal adenocarcinoma SW480”, “Corning Corp.)” for “Corning Corp.), and”, “using DMEM” for “using DMEM/Ham's F121:1”, “containing 10%” for “containing 5%”

PIM-1 = PIM-1 (Homo sapiens (Human), UniProt P11309); assay: Luminometric kinase assay for PIM1 kinase (Kinase-Glo); assay type: biochemical; details: 1 μM ATP, 25 min at RT
Method: Kinase assay was performed using luminescent Kinase-Glo® (Promega) system. The Kinase-Glo® Luminescent Kinase Assay Platform provides a homogeneous, high-throughput screening method for measuring kinase activity by quantifying the amount of ATP remaining in solution following a kinase reaction. The luminescent signal is correlated with the amount of ATP present and is inversely correlated with the kinase activity. Appropriate amounts of both kinase and substrate were mixed in 96-well, white wall plate in the reaction buffer (8 mM MOPS/NaOH, pH7.0, 0.2 mM EDTA, 2 mM MgCl2). Tested compounds were diluted in DMSO and serial dilutions starting with 1 μM were added to the palates. Reaction was initiated by adding 1 μM of ATP solution and conducted for 25 min. at RT. Luminescent signal was detected by adding Kinase-Glo® reagent and measured using a microplate spectrophotometer (Synergy 2 multi-mode microplate reader (BioTek)). IC50 values were obtained by fitting sigmoidal dose-response curve (variable slope) using GraphPad Prism software.

[3] = system: human acute lymphocytic leukemia E6.1 Jurkat cells; assay: Growth inhibition test (MTS) on E6.1 Jurkat cells; assay type: cell-based; details: 72 hours, read-out: Jurkat ED50
Method: as §1, with “Twenty thousand” for “Two thousand”, “human acute lumphocytic leukemia E6.1 Jurkat” for “human colorectal adenocarcinoma SW480”, “Corning Corp.)” for “Corning Corp.), and”, “using […]” for “using DMEM/Ham's F121:1”, “containing 10%” for “containing 5%”

[4] = system: human myelomonocytic, biphenotypic leukemia MV4-11 cells; assay: Growth inhibition test (MTS) on MV4-11 cells; assay type: cell-based; details: read-out: MV-4-11 ED50
Method: as §1, with “Ten thousand” for “Two thousand”, “human myelomonocytic, biphenotypic leukemia MV4-11” for “human colorectal adenocarcinoma SW480”, “Corning Corp.)” for “Corning Corp.), and”, “using Iscove's MDM” for “using DMEM/Ham's F121:1”, “containing 10%” for “containing 5%”

[5] = system: human prostate adenocarcinoma PC3 cells; assay: Growth inhibition test (MTS) on PC3 cells; assay type: cell-based; details: for IC50: Homo sapiens, PC-3, 72 hours, read-out: PC-3 ED50
Excerpt: as §1, with “human prostate” for “human colorectal”, “adenocarcinoma PC3” for “adenocarcinoma SW480”, “using F12K (Ham's F12:[…] 1:1)” for “using DMEM/Ham's F121:1”, “containing 10%” for “containing 5%”

[6] = system: human breast adenocarcinoma MCF7 cells; assay: Growth inhibition test (MTS) on MCF7 cells; assay type: cell-based; details: read-out: MCF-7 ED50
Method: as §1, with “human breast” for “human colorectal”, “adenocarcinoma MCF7” for “adenocarcinoma SW480”, “using DMEM” for “using DMEM/Ham's F121:1”, “containing 10%” for “containing 5%”

Chain of PIM-1 (P11309 whole entry): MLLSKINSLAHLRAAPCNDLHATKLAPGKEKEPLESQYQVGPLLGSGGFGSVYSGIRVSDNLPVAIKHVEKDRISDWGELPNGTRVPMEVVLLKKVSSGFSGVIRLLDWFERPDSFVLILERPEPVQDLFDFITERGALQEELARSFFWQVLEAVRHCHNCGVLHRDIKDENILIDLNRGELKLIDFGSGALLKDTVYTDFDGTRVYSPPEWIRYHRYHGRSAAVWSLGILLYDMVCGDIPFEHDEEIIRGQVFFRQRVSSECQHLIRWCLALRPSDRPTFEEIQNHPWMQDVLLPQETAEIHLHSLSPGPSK

SMILES	IC50 [2] [µM]	IC50 (PIM-1) [µM]	IC50 [3] [µM]	IC50 ([4]; Homo sapiens, MV4-11, 72 hours) [µM]	IC50 [5] [µM]	IC50 ([6]; Homo sapiens, MCF7, 72 hours) [µM]	IC50 ([1]; Homo sapiens, SW480, 72 hours) [µM]	IC50 ([1]; 72 hours) [µM]	PC-3 ED50 ([5]; 72 hours) [µM]	IC50 ([6]; 72 hours) [µM]	IC50 ([4]; 72 hours) [µM]
Brc1c(Br)c(Br)c2[nH]c(NCCN3CCOCC3)nc2c1Br [Compound 16, 4,5,6,7-tetrabromo-N-(2-morpholinoethyl)-1H-benzo[d]imidazol-2-amine]	8.78	0.107						9.68			
Brc1c(Br)c(Br)c2[nH]c(NCCCN3CCCC3)nc2c1Br [Compound 58]	2.93	0.0257	3.37	1.54							
Brc1c(Br)c(Br)c2[nH]c(NCCCN3CCOCC3)nc2c1Br [Compound 192, 4,5,6,7-tetrabromo-N-(3-morpholinopropyl)-1H-benzo[d]imidazol-2-amine]	6.23	0.0454	7.67	5.13							
Oc1ccc(CCNc2nc3c(Br)c(Br)c(Br)c(Br)c3[nH]2)cc1 [Compound 243, 4-(2-(4,5,6,7-tetrabromo-1H-benzo[d]imidazol-2-ylamino)ethyl)phenol]	9		6.12	6.84							
Fc1ccc(CNc2nc3c(Br)c(Br)c(Br)c(Br)c3[nH]2)cc1F [Compound 296, N-(3,4-difluorobenzyl)-4,5,6,7-tetrabromo-1H-benzo[d]imidazol-2-amine]	5.91	0.17	8.12	4.15	4.21						
OC1CCC(Nc2nc3c(Br)c(Br)c(Br)c(Br)c3[nH]2)CC1 (stereo not drawn) [Compound 309, 4-(4,5,6,7-tetrabromo-1H-benzo[d]imidazol-2-ylamino)cyclohexanol]	4.87	0.0159	8.18	5.54							
Brc1c(Br)c(Br)c2[nH]c(Nc3ccccn3)nc2c1Br [Compound 329, 4,5,6,7-tetrabromo-N-(pyridin-2-yl)-1H-benzo[d]imidazol-2-amine]		0.047	4.45		4.69						
Brc1c(Br)c(Br)c2[nH]c(N3CCN(Cc4cn5ccccc5n4)CC3)nc2c1Br [Compound 387, 2-(4-((H-imidazo[1,2-a]pyridin-2-yl)methyl)piperazin-1-yl)-4,5,6,7-tetrabromo-1H-benzo[d]imidazole]								3.27	5.49	9.25	2.13

Further lines, with some results ahead:

IC50 [2] [µM]	IC50 (PIM-1) [µM]	IC50 [3] [µM]	IC50 ([4]; Homo sapiens, MV4-11, 72 hours) [µM]	IC50 [5] [µM]	IC50 ([6]; Homo sapiens, MCF7, 72 hours) [µM]	IC50 ([1]; Homo sapiens, SW480, 72 hours) [µM]	SMILES	IC50 ([1]; 72 hours) [µM]	PC-3 ED50 ([5]; 72 hours) [µM]	IC50 ([6]; 72 hours) [µM]	IC50 ([4]; 72 hours) [µM]
	0.0294	4.63	6.83				Brc1c(Br)c(Br)c2[nH]c(N3CCOCC3)nc2c1Br [Compound 19, 4,5,6,7-tetrabromo-2-morpholino-1H-benzo[d]imidazole]				
5.85	0.279	7.79	3.33				CN(C)CCCN1CCN(c2nc3c(Br)c(Br)c(Br)c(Br)c3[nH]2)CC1 [Compound 75, 3-(4-(4,5,6,7-tetrabromo-1H-benzo[d]imidazol-2-yl)piperazin-1-yl)-N,N-dimethylpropan-1-amine]				
4.54	0.117	3.06	5.27				Brc1c(Br)c(Br)c2[nH]c(N3CCN(CCN4CCCCC4)CC3)nc2c1Br [Compound 76, 4,5,6,7-tetrabromo-2-(4-(2-(piperidin-1-yl)ethyl)piperazin-1-yl)-1H-benzo[d]imidazole]				
7.12	0.0944		3.43	8.3	8.32	3.72	OCCCN1CCN(c2nc3c(Br)c(Br)c(Br)c(Br)c3[nH]2)CC1 [Compound 383, 3-(4-(4,5,6,7-tetrabromo-1H-benzo[d]imidazol-2-yl)piperazin-1-yl)propan-1-ol]				
	0.00672		7.55	4.48		1.85	N=C(N)N1CCN(c2nc3c(Br)c(Br)c(Br)c(Br)c3[nH]2)CC1 [Compound 392, 4-(4,5,6,7-tetrabromo-1H-benzo[d]imidazol-2-yl)piperazine-1-carboxamidine]				
